Measured values taken from patent US20110098352A1, “N,N-DISUBSTITUTED AMINOALKYLBIPHENYL ANTAGONISTS OF PROSTAGLANDIN D2 RECEPTORS” (AMIRA PHARMACEUTICALS, INC., priority 2008, published 2011).

Columns and labels:
human DP2 receptor = biological target: T1, human DP2 receptor (Homo sapiens, UniProt Q9Y5Y4); assay: DP2/CRTH2 radioligand binding assay using [3H]PGD2; conditions: [3H]PGD2 binding, membranes of HEK293 cells expressing recombinant human DP2; read-out: hDP2
T1 construct: expressed in transfected cells
T1 sequence (Q9Y5Y4 1-395): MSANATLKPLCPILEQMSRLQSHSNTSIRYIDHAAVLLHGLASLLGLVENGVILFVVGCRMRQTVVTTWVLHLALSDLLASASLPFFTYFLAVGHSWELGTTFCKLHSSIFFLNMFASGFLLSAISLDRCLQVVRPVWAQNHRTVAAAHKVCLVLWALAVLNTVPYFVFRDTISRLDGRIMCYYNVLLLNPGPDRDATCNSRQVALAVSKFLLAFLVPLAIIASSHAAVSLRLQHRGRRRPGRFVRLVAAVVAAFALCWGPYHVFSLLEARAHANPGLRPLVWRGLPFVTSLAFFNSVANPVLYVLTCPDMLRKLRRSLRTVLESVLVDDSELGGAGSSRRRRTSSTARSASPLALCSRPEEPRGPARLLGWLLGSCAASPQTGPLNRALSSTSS
Procedure, shortened: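 HEK293 membranes with stable recombinant human DP2, incubated with 1 nM [3H]PGD2 and compound 60 min at room temperature in pH 7.4 HEPES/MnCl2/EDTA buffer, with or without 0.2% human serum albumin.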

human DP1 receptor = biological target: T2, human DP1 receptor (Homo sapiens, UniProt Q13258); assay: DP1 radioligand membrane binding assay using [3H]BWA868C; conditions: [3H]BWA868C binding, human platelet membranes; read-out: hDP1
T2 construct: tissue Biological Specialty Corporation; host or cells: human platelets, membranes
T2 sequence (Q13258 1-359): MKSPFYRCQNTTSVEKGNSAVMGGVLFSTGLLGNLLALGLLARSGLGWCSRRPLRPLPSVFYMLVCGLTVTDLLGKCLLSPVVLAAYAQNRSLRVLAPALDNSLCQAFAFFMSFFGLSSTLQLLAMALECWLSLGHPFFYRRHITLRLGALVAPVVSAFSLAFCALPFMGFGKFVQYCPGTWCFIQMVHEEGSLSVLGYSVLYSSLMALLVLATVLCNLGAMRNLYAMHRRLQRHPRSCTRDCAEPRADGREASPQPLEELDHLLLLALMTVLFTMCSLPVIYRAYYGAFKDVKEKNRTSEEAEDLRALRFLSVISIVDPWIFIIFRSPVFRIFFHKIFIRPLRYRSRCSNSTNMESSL

[1] = biological target: T3, recombinant human CRTH2 receptor (Homo sapiens, UniProt Q9Y5Y4); assay: GTPγS binding assay; type: biochemical; conditions: +HSA; CHO cell membranes, 80 nM PGD2; read-out: hDP2 GTPγS μM (+HSA)
T3 construct: expressed in transfected cells
T3 sequence (Q9Y5Y4 1-395): T1 sequence (Q9Y5Y4 1-395)
Experimental: The ability of a compound to inhibit binding of GTP to DP2 is assessed via a membrane GTPγS assay. CHO cells stably expressing the recombinant human CRTH2 receptor are resuspended in 10 mM Hepes, 7.4 containing 1 mM DTT, lysed and centrifuged at 75,000×g to pellet the membranes. The membranes are resuspended in 10 mM Hepes, 7.4 containing 1 mM DTT and 10% glycerol. […] The reactions are terminated by rapid filtration through Whatman GF/B glass fibre filter plates. The filter plates are washed 3 times with 1 ml cold Assay Buffer and dried. Scintillant is then added to the plates and the radioactivity retained on the filters is determined on a Packard TopCount (Perkin Elmer). Specific binding is determined as total radioactive binding minus non-specific binding in the absence of the ligand (80 nM PGD2). IC50s were determined using Graphpad prism analysis of drug titration curves.

SMILES	IC50 (human DP2 receptor)	IC50 (human DP1 receptor)	IC50 [1]
CCN(Cc1cc(C(F)(F)F)ccc1-c1cc(CC(=O)O)ccc1F)C(C)=O [Compound 1-10, {2′-[(Acetyl-ethyl-amino)-methyl]-6-fluoro-4′-trifluoromethyl-biphenyl-3-yl}-acetic acid]	< 300 nM	> 1000 nM	< 0.3 µM
COc1ccc(CC(=O)O)cc1-c1ccc(C(F)(F)F)cc1CN(C)C(C)=O [Compound 1-1, {2′-[(Acetyl-methyl-amino)-methyl]-6-methoxy-4′-trifluoromethyl-biphenyl-3-yl}-acetic acid]	< 300 nM	> 1000 nM	< 0.3 µM
CCN(Cc1cc(C(F)(F)F)ccc1-c1cc(CC(=O)O)ccc1OC)C(=O)C(C)Oc1ccccc1 (stereo not drawn) [Compound 1-45, (2′-{[Ethyl-(2-phenoxy-propionyl)-amino]-methyl}-6-methoxy-4′-trifluoromethyl-biphenyl-3-yl)-acetic acid]	< 300 nM	> 1000 nM	< 0.3 µM
CCN(Cc1cc(C(F)(F)F)ccc1-c1cc(CC(=O)O)ccc1OC)C(=O)C(C)(C)Oc1ccc(Cl)cc1 [Compound 1-118, [2′-({[2-(4-Chloro-phenoxy)-2-methyl-propionyl]-ethyl-amino}-methyl)-6-methoxy-4′-trifluoromethyl-biphenyl-3-yl]-acetic acid]	< 300 nM	> 1000 nM	< 0.3 µM
O=C(O)CCn1c2c(c3ccccc31)C[C@H](NS(=O)(=O)c1ccc(F)cc1)CC2 [Ramatroban, reference compound]	300 to 1000 nM	> 1000 nM	0.3 to 1 µM
